Measured values published in patent publication US12692230B2, “(1 h-indol-5-yl)acrylamide derivatives as inhibitors of TEAD proteins and the hippo-YAP1/TAZ signaling cascade for the treatment of cancer” (Sanofi, priority 2020, dated 2026).

test system: TEAD responsive promoter element (8XGTIIC-Luciferase; YAP1-TEAD and TAZ-TEAD activity); assay: TEAD-Luciferase reporter assay; type: cell-based; conditions: Homo sapiens; luciferase activity in tumor cell lines with stable integration of the 8XGTIIC-Luciferase construct; 10 doses between 1 and 10000 nM, 48 hrs
Text: TEAD-Luciferase Reporter Assay
Luciferase-based gene reporter assays were used, employing the TEAD responsive promoter element that are stably integrated to different human tumor cell lines in order to monitor YAP1-TEAD and TAZ-TEAD activity and to study YAP1/TAZ-TEAD activity modulation by small molecule compounds. Luciferase-based gene reporter assays employing the GAPDH promoter element and stably integrated to different human tumor cell lines are used as counter screen control cell lines.
Tumor cell lines with stable integration of the 8XGTIIC-Luciferase construct (Dupont et al., Nature 2011) or the GAPDH-Luciferase control plasmid, are seeded in culture medium in 96-well plates at a density of 8000 cells/well. Following an overnight incubation in a 37° C., 5% CO2 growth chamber, cells are treated with compounds described above at 10 doses ranging between 1 and 10000 nM for 48 hrs. After compound incubation, cells are lysed with Bright-Glo Luciferase Assay System (Promega E2620) and luciferase activity is measured using a luminescent plate reader.
The inhibitory activity of the compounds with respect to luciferase activity is given by the concentration which inhibits 50% of activity of non-treated cells. IC50s are determined with a nonlinear regression model on XLfit software analysis (IDBS, UK).

| Structure (SMILES) | IC50 [nM] |
| --- | --- |
| C=CC(=O)Nc1ccc2c(ccn2Cc2cccc(C(F)(F)F)c2)c1 [Example 1, N-(1-(3-(trifluoromethyl)benzyl)-1H-indol-5-yl)acrylamide] | 24 |
| C=CC(=O)N(C)c1ccc2c(ccn2Cc2cccc(C(F)(F)F)c2)c1 [Example 2, N-methyl-N-(1-(3-(trifluoromethyl)benzyl)-1H-indol-5-yl)acrylamide] | 1090 |
| C=CC(=O)Nc1ccc2c(ccn2CCCCC(F)(F)F)c1 [Example 3, N-(1-(5,5,5-trifluoropentyl)-1H-indol-5-yl)acrylamide] | 25 |
| C=CC(=O)Nc1ccc2c(ccn2C(C)c2cccc(C(F)(F)F)c2)c1 (stereo not drawn) [Example 4, N-(1-(1-(3-(trifluoromethyl)phenyl)ethyl)-1H-indol-5-yl)acrylamide] | 558 |
| C=CC(=O)Nc1ccc2c(ccn2Cc2cccc(S(F)(F)(F)(F)F)c2)c1 [Example 5, N-(1-(3-(pentafluoro-λ6-sulfanyl)benzyl)-1H-indol-5-yl)acrylamide] | 61 |
| C=CC(=O)Nc1ccc2c(ccn2Cc2ccc(S(F)(F)(F)(F)F)cc2)c1 [Example 6, N-(1-(4-(pentafluoro-λ6-sulfanyl)benzyl)-1H-indol-5-yl)acrylamide] | 4040 |
| C=CC(=O)Nc1ccc2c(ccn2Cc2ccc(OC(F)(F)F)cc2)c1 [Example 7, N-(1-(4-(trifluoromethoxy)benzyl)-1H-indol-5-yl)acrylamide] | ≥ 10000 |
| C=CC(=O)Nc1ccc2c(ccn2Cc2cccc(OC(F)(F)F)c2)c1 [Example 8, N-(1-(3-(trifluoromethoxy)benzyl)-1H-indol-5-yl)acrylamide] | 296 |
| C=CC(=O)Nc1ccc2c(ccn2Cc2cccc(I)c2)c1 [Example 9, N-(1-(3-iodobenzyl)-1H-indol-5-yl)acrylamide] | 143 |
| C=CC(=O)Nc1ccc2c(ccn2Cc2cc(C(F)(F)F)ccc2F)c1 [Example 10, N-(1-(2-fluoro-5-(trifluoromethyl)benzyl)-1H-indol-5-yl)acrylamide] | 7220 |
| C=CC(=O)Nc1ccc2c(c1)c(C)cn2Cc1cccc(C(F)(F)F)c1 [Example 11, N-(3-methyl-1-(3-(trifluoromethyl)benzyl)-1H-indol-5-yl)acrylamide] | 30 |
| C=CC(=O)Nc1ccc2c(ccn2Cc2cccc(OC)c2)c1 [Example 12, N-(1-(3-methoxybenzyl)-1H-indol-5-yl)acrylamide] | 241 |
| C=CC(=O)Nc1ccc2c(c1)cc(C)n2Cc1cccc(C(F)(F)F)c1 [Example 13, N-(2-methyl-1-(3-(trifluoromethyl)benzyl)-1H-indol-5-yl)acrylamide] | 63 |
| C=CC(=O)Nc1ccc2c(c1)c(C#N)cn2Cc1cccc(C(F)(F)F)c1 [Example 14, N-(3-cyano-1-(3-(trifluoromethyl)benzyl)-1H-indol-5-yl)acrylamide] | 236 |
| C=CC(=O)Nc1ccc2c(ccn2Cc2cccc(C3CC3)c2)c1 [Example 15, N-(1-(3-cyclopropylbenzyl)-1H-indol-5-yl)acrylamide] | 496 |
| C=CC(=O)Nc1ccc2c(c1)c(C)c(C)n2Cc1cccc(C(F)(F)F)c1 [Example 16, N-(2,3-dimethyl-1-(3-(trifluoromethyl)benzyl)-1H-indol-5-yl)acrylamide] | 31 |
| C=CC(=O)Nc1ccc2c(ccn2Cc2cccc(C)c2)c1 [Example 17, N-(1-(3-methylbenzyl)-1H-indol-5-yl)acrylamide] | 54 |
| C=CC(=O)Nc1ccc2c(ccn2Cc2ccccc2)c1 [Example 18, N-(1-Benzyl-1H-indol-5-yl)-acrylamide] | 963 |
| C=CC(=O)Nc1cccc2c1ccn2Cc1cccc(C(F)(F)F)c1 [Example 19, N-(1-(3-(trifluoromethyl)benzyl)-1H-indol-4-yl)acrylamide] | 195 |
| CN(C)C/C=C/C(=O)Nc1cccc2c1ccn2Cc1cccc(C(F)(F)F)c1 [Example 20, (E)-4-(dimethylamino)-N-(1-(3-(trifluoromethyl)benzyl)-1H-indol-4-yl)but-2-enamide] | 7760 |
| C=CC(=O)Nc1ccc2ccn(Cc3cccc(C(F)(F)F)c3)c2c1 [Example 21, N-(1-(3-(trifluoromethyl)benzyl)-1H-indol-6-yl)acrylamide] | 35 |
| C=CC(=O)Nc1ccc2c(ccn2CC2CCC(F)(F)CC2)c1 [Example 22, N-(1-((4,4-difluorocyclohexyl)methyl)-1H-indol-5-yl)acrylamide] | 1400 |
| C=CC(=O)Nc1ccc2c(ccn2CC2CCOCC2)c1 [Example 23, N-(1-((tetrahydro-2H-pyran-4-yl)methyl)-1H-indol-5-yl)acrylamide] | 369 |

| Structure (SMILES) | IC50 [nM] |
| --- | --- |
| C=CC(=O)Nc1ccc2c(ccn2CC2CCC(C(F)(F)F)CC2)c1 (stereo not drawn) [Example 24, N-(1-((4-(trifluoromethyl)cyclohexyl)methyl)-1H-indol-5-yl)acrylamide] | 1000 |
| C=CC(=O)Nc1ccc2c(ccn2CC2CC3(C2)CC3(F)F)c1 (stereo not drawn) [Example 25, N-(1-((1,1-difluorospiro[2.3]hexan-5-yl)methyl)-1H-indol-5-yl)acrylamide] | 1000 |
| C=CC(=O)Nc1ccc2c(ccn2CC2CCC(F)C2)c1 (stereo not drawn) [Example 26, N-(1-((3-fluorocyclopentyl)methyl)-1H-indol-5-yl)acrylamide] | 357 |
| C=CC(=O)Nc1ccc2c(ccn2CC2CCCCC2)c1 [Example 27, N-(1-(cyclohexylmethyl)-1H-indol-5-yl)acrylamide] | ≥ 10000 |
| C=CC(=O)Nc1ccc2c(ccn2CC2CC(C(F)(F)F)C2)c1 (stereo not drawn) [Example 28, N-(1-((3-(trifluoromethyl)cyclobutyl)methyl)-1H-indol-5-yl)acrylamide] | ≥ 10000 |
| C=CC(=O)Nc1ccc2c(ccn2CC2CCC(F)(F)C2)c1 (stereo not drawn) [Example 29, N-(1-((3,3-difluorocyclopentyl)methyl)-1H-indol-5-yl)acrylamide] | 43 |
| C=CC(=O)Nc1ccc2c(ccn2Cc2ccc(-c3ccccc3)cc2)c1 [Example 30, N-(1-([1,1′-biphenyl]-4-ylmethyl)-1H-indol-5-yl)acrylamide] | ≥ 10000 |
| C=CC(=O)Nc1ccc2c(ccn2Cc2ccc(-c3cccc(C(F)(F)F)c3)cc2)c1 [Example 31, N-(1-((3′-(trifluoromethyl)-[1,1′-biphenyl]-4-yl)methyl)-1H-indol-5-yl)acrylamide] | 20 |
| C=CC(=O)Nc1ccc2c(ccn2Cc2ccc(-c3ccc(C(F)(F)F)cc3)cc2)c1 [Example 32, N-(1-((4′-(trifluoromethyl)-[1,1′-biphenyl]-4-yl)methyl)-1H-indol-5-yl)acrylamide] | 7840 |
| C=CC(=O)Nc1ccc2c(ccn2[C@H]2CC[C@H](C(F)(F)F)CC2)c1 [Example 33, Trans-N-[1-[4-(trifluoromethyl)cyclohexyl]indol-5-yl]acrylamide] | 41 |
| C=CC(=O)Nc1ccc2c(ccn2[C@H]2CC[C@@H](C(F)(F)F)CC2)c1 [Example 34, Cis-N-[1-[4-(trifluoromethyl)cyclohexyl]indol-5-yl]acrylamide] | ≥ 10000 |
| C=CC(=O)Nc1ccc2c(ccn2CC2CCN(c3ccc(C(F)(F)F)cc3)CC2)c1 [Example 35, N-(1-((1-(4-(trifluoromethyl)phenyl)piperidin-4-yl)methyl)-1H-indol-5-yl)acrylamide] | 2330 |
| C=CC(=O)Nc1ccc2c(ccn2CCN(C)CC(F)(F)F)c1 [Example 36, N-(1-(2-(methyl(2,2,2-trifluoroethyl)amino)ethyl)-1H-indol-5-yl)acrylamide] | 4560 |
| C=CC(=O)Nc1ccc2c(ccn2CCOCC(F)(F)F)c1 [Example 37, N-(1-(2-(2,2,2-trifluoroethoxy)ethyl)-1H-indol-5-yl)acrylamide] | > 10000 |
| C=CC(=O)Nc1ccc2c(ccn2C2CCN(CC(F)(F)F)CC2)c1 [Example 38, N-(1-(1-(2,2,2-trifluoroethyl)piperidin-4-yl)-1H-indol-5-yl)acrylamide] | 1500 |
| C=CC(=O)Nc1ccc2c(ccn2C2CCC(F)(F)CC2)c1 [Example 39, N-(1-(4,4-difluorocyclohexyl)-1H-indol-5-yl)acrylamide] | 84 |
| C=CC(=O)Nc1ccc2c(ccn2C2CCN(c3ccc(C(F)(F)F)cc3)CC2)c1 [Example 40, N-(1-(1-(4-(trifluoromethyl)phenyl)piperidin-4-yl)-1H-indol-5-yl)acrylamide] | ≥ 10000 |
| C=CC(=O)Nc1ccc2c(ccn2CCCN2CCC(F)(F)C2)c1 [Example 41, N-(1-(3-(3,3-difluoropyrrolidin-1-yl)propyl)-1H-indol-5-yl)acrylamide] | ≥ 10000 |
| C=CC(=O)Nc1ccc2c(ccn2Cc2ccc([Si](C)(C)C)cc2)c1 [Example 42, N-(1-(4-(trimethylsilyl)benzyl)-1H-indol-5-yl)acrylamide] | 211 |
| C=CC(=O)Nc1ccc2c(ccn2-c2cccc(C(F)(F)F)c2)c1 [Example 43, N-(1-(3-(trifluoromethyl)phenyl)-1H-indol-5-yl)acrylamide] | 36 |
| C=CC(=O)Nc1ccc2c(ccn2-c2ccc(C(F)(F)F)cc2)c1 [Example 44, N-(1-(4-(trifluoromethyl)phenyl)-1H-indol-5-yl)acrylamide] | 8 |
| C=CC(=O)Nc1ccc2c(ccn2-c2ccc(C(F)(F)F)nc2)c1 [Example 45, N-(1-(6-(trifluoromethyl)pyridin-3-yl)-1H-indol-5-yl)acrylamide] | 106 |
